Data as given in patent US20030069187A1, “Elastase inhibitors” (priority 2001, published 2003).

What was measured:
elastase = settings: other elastase inhibitors, compared with AFP; cited from earlier work
[1] = target: T1, porcine pancreatic elastase (PPE) (Sus scrofa, UniProt P00772); test: Elastase inhibitory capacity assay with succinylated elastin substrate; format: biochemical; settings: 0.029 U PPE, 200 μg succinylated elastin; for increase in elastase inhibitory capacity compared to total EDP: 37° C. 30 min, % inhibition standardized to μg protein, p<0.001
T1 construct: purchased Calbiochem, San Diego, Calif
T1 sequence (P00772 27-266): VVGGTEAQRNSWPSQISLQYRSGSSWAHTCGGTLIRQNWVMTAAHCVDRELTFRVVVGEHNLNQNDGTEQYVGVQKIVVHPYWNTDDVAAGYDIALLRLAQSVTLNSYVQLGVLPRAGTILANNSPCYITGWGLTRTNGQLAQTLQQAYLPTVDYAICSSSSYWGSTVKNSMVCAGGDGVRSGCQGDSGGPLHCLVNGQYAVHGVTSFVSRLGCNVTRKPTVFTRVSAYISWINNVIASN
Protocol: FIG. 1 is a bar graph depicting results from experiments in which the inhibitory capacity of each EDP isolate was evaluated in triplicate using 200 μg of succinylated elastin (Rao et al., 1997; Mathrubutham et al., 1998), 30 μg of Total EDP, […] of G-25 fractions and RP-HPLC fractions and 0.029 U PPE in 150 μl with 50 mM sodium borate pH8.5. Reactions were incubated at 37° C. for 30 minutes, then treated with 2,4,6-trinitrobenzene sufonic acid. Absorbance at A450nm was determined after 20 min at room temperature. Elastase inhibitory capacity was evaluated by comparing the activity of PPE in the presence and absence of EDP, where elastase in the absence of EDP was considered to represent 100% elastase activity. The data was standardized to protein content and is presented as % inhibition per μg of protein. […] PEP7 is VPG; PEP8 is AGIP and PEP9 is AFP.
Total EDP was fractionated on a G-25 Sephadex column equilibrated with 50 mM sodium borate pH 8.5 at a flow rate of 0.7 ml/minute. G-25 inhibitory fractions were then analyzed by reverse phase high performance liquid chromatography (RP-HPLC) using a C-18 column (Vydac, Hesperia, Calif.) with 5% acetonitrile, 0.1% triflouroacetic acid pH 2.3 as RP buffer at a flow rate of 0.5 ml/minutes and monitored at A205nm. Fractions were collected, dried, and resuspended in 50 μl water and assayed for elastase inhibitory capacity (Rao et al., 1997; Mathrabutham et al., 1998). The inhibitory capacity of G-25 and RP-HPLC EDP fractions were evaluated (Rao et al., 1997; Mathrabutham et al., 1998) using 3 μg of G-25 fraction and RP-HPLC peptide with 0.029 U PPE. Percentage inhibitory capacity was evaluated by comparing the activity of PPE in the presence and absence (100% activity) of EDP and standardized to μg protein. The inhibitor constant (Ki) was experimentally calculated (Lineweaver et al., 1936). […]

CC(C)C[C@H](NC(=O)N[C@H](C(=O)N[C@@H](CCC(N)=O)C(=O)N[C@@H](C)C=O)[C@@H]1CCNC(=N)N1)C(=O)O [elastatinal]
Ki (elastase): 50 µM

Ala-Gly-Ile-Pro (AGIP; printed: Ala-Gly-Ile-Pro)
increase in elastase inhibitory capacity compared to total EDP [1]: 4.3 fold

VGVAPG
elastase inhibition (% inhibition per μg of protein) ([1]; FIG. 1): elastase inhibition is a characteristic that is not shared by all EDPs

Val-Pro-Gly [VPG]
increase in elastase inhibitory capacity compared to total EDP [1]: 4.8 fold
